Results from patent US20080242688A1, “Method 741” (ASTRAZENECA AB, priority 2007, published 2008).
Where “and” joins values, the source holds several entries; their conditions need not be identical. Equal values may be shown once.

What was measured:
adrenergic α2B receptor = adrenergic α2B receptor (Homo sapiens, UniProt P18089); experiment: Selectivity panel, radioligand binding; details: read-out: inhibition of specific radioligand binding
Experimental: (§1) Secondary effects of AZD0328 on targets other than the α7 nicotinic acetylcholine receptor (nAChR) were investigated in vitro. Selectivity against a broad panel of 129 receptors, ion channels, nuclear hormone receptors, transporters and enzymes was tested using radioligand binding assays (Report no. GPW003).

[1] = system: central nicotinic receptors; experiment: Selectivity panel, radioligand binding; details: 10 μM
Experimental: as §1

muscarinic M3 receptor = muscarinic M3 receptor (Homo sapiens, UniProt P20309); experiment: Selectivity panel, radioligand binding; details: read-out: inhibition of specific radioligand binding
muscarinic M3 receptor, sequence (P20309 whole entry): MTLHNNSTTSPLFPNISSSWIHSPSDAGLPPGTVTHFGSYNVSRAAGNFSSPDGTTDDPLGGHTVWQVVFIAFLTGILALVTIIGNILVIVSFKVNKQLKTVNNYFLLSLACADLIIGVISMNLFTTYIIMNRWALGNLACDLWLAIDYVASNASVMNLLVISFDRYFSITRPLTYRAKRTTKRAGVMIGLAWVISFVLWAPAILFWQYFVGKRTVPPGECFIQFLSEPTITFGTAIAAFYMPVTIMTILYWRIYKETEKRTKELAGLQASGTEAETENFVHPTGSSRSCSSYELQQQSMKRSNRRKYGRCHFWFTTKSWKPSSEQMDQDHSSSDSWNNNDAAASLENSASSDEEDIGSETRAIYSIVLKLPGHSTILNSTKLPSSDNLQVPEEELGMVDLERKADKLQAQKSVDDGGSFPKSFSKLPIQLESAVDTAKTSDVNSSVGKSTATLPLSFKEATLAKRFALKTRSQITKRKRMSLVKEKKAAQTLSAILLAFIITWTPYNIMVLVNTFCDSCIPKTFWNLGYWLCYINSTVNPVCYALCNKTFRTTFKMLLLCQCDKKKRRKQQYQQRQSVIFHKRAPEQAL
Experimental: as §1

muscarinic M5 receptor = muscarinic M5 receptor (Homo sapiens, UniProt P08912); experiment: Selectivity panel, radioligand binding; details: read-out: inhibition of specific radioligand binding
muscarinic M5 receptor, sequence (P08912 whole entry): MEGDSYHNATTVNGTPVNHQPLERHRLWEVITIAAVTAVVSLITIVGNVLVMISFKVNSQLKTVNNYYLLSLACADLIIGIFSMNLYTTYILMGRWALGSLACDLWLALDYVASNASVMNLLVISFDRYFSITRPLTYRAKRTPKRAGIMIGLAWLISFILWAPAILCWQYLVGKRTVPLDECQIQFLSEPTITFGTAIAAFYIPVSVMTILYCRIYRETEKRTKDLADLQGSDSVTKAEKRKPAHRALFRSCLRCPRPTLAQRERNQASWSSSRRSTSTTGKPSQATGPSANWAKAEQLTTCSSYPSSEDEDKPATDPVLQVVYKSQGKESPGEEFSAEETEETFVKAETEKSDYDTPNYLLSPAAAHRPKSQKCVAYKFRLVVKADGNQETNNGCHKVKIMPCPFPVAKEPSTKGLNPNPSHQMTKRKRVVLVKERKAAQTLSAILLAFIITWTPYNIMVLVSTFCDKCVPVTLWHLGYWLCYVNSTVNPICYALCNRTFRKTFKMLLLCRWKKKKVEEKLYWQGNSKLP
Experimental: as §1

[2] = target: serotonergic 5-HT3 receptor (Homo sapiens, UniProt P46098); experiment: Selectivity panel, radioligand binding; details: read-out: inhibition of specific radioligand binding
serotonergic 5-HT3 receptor, sequence (P46098 24-478): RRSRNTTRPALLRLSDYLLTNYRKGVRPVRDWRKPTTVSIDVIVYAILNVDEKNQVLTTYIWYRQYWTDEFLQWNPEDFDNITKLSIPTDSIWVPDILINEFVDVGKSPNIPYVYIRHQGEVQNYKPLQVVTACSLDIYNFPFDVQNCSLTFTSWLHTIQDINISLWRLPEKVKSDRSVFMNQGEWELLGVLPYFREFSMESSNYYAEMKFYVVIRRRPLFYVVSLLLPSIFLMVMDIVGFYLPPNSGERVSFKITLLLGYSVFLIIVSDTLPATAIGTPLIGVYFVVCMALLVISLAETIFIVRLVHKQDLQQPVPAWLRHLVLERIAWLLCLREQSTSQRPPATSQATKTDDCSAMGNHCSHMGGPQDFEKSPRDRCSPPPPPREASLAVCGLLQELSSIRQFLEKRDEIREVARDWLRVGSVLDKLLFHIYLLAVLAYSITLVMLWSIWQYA
Experimental: as §1

[3] = target: T1, human recombinant 5-HT3A/B receptors (Homo sapiens, UniProt O95264+P46098); experiment: Functional assays at recombinant human receptors; assay type: biochemical; details: recombinant human receptors in vitro
T1 construct: expressed in transfected cells
T1 sequence (P46098 24-478): as above
T1 sequence (O95264 22-441): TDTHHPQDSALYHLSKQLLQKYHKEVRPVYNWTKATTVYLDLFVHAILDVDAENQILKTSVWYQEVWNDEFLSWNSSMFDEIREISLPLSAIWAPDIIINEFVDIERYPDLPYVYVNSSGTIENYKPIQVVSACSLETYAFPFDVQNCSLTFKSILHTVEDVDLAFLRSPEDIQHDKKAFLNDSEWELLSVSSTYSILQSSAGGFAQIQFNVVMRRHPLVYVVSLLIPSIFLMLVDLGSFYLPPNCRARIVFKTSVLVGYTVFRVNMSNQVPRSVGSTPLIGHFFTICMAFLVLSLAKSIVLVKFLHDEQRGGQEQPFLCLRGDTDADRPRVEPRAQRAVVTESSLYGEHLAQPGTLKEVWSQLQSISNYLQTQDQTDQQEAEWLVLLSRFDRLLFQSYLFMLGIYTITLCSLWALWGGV

5-HT3A = target: T2, 5-HT3A (Homo sapiens, UniProt P46098); experiment: Functional assays at recombinant human receptors; assay type: biochemical; details: functional potency, recombinant human receptors in vitro
T2 construct: expressed in transfected cells
T2 sequence (P46098 24-478): as the sequence (P46098 24-478) above

rats [4] = experiment: Nicotine drug discrimination; assay type: in vivo, rat
[5] = Cardiovascular effects in telemetered rats; assay type: in vivo, rat; details: plasma, rat
Experimental: (§2) Effects of single oral doses of AZD0328 on mean, systolic and diastolic arterial blood pressures, heart rate, body temperature, locomotor activity and respiratory parameters were evaluated in rats by combining whole body plethysmography with telemetry (Table 3). […] The degree of hypertension, however, was similar at the 3 highest doses, which partly can be explained by the high individual variation in plasma exposure at each dose level. The effect on heart rate was, on the other hand, dose-related.

rats [6] = experiment: Cardiovascular effects in telemetered rats; assay type: in vivo, rat
Experimental: as §2

[7] = Cardiovascular/ECG telemetry in dogs; assay type: in vivo; details: in vivo, dog, low dose group, read-out: total Cmax
Experimental: (§3) The cardiovascular effects of orally administered AZD0328 were assessed dogs implanted with telemetry transmitters (Table 3). The main purpose of the study was to evaluate effects on the QT interval of the ECG during a 7-days dosing period followed by 5 days of recovery, thus enabling assessment of any accumulation of effects and the recovery back to baseline. Systolic, diastolic and mean arterial blood pressure, heart rate, lead II ECG and core body temperature were recorded continuously. The PR, QRS and QT intervals of the ECG were measured, and the QT interval was corrected for changes in heart rate using the method of Van de Water (QTcV).

dogs = experiment: Cardiovascular/ECG telemetry in dogs; assay type: in vivo; details: dog, oral
Experimental: as §3

Single dose PK/TK, rat = assay type: in vivo; details: for AUC / Cmax / Tmax: in vivo
Excerpt: (§4) This section provides a summary of the pharmacokinetic and metabolism properties of AZD0328 derived from in vivo studies. […] The derived PK/TK parameters from these studies are presented in Table 4 for single dose studies (DMR4, 0619LR, 20030191PCR, DMO16, DMB10, DMW12, 50190, 0190DD and 03.330/1), and are presented in Table 5 multiple dose PK/TK studies (DMR4, 0612AR, DMB15, 50190, 0190DD and 0295AD).

[8] = Single dose PK/TK, rabbit; details: New Zealand White, in vivo
Excerpt: as §4

[9] = Single dose PK/TK, ferret; details: in vivo
Excerpt: as §4

human hepatocytes = experiment: Human hepatocyte incubations; assay type: in vitro ADME; details: four separate batches of human hepatocytes
Experimental: Pyridinyl methylation of AZD0328 was a unique polar metabolite (M2) observed in dog hepatocytes. Other minor hydroxylation/oxidation and glucuronide conjugation products were detected in monkey, dog, rat, and guinea pig hepatocyte incubations and mini-pig hepatic microsome incubations. […] Analysis of plasma and urine samples from either orally or iv dosed rats confirmed N-oxide product of AZD0328 was a main product in the excretion and circulation. The percentage of AZD0328 N-oxide in the plasma from male rats was much higher than from females.

[10] = target: T3, human recombinant α7 receptor (Homo sapiens, UniProt P36544); experiment: [3H]-AZ11637326 binding, α7-HEK; set-up: expressed in transfected cells
T3 sequence (P36544 23-502): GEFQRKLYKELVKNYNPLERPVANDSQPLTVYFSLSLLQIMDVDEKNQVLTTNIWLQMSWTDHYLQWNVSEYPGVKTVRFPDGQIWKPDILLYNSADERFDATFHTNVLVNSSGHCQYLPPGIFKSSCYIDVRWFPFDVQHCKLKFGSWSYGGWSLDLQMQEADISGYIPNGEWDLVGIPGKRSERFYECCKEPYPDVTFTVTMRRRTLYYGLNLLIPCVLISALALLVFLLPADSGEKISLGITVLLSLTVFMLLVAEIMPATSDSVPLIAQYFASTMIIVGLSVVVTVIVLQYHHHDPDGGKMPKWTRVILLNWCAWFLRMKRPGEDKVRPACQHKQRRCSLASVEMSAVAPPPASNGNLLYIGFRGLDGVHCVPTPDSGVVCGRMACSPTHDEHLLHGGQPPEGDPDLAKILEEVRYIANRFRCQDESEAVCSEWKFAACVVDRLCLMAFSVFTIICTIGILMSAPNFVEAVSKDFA

[11] = target: T3, human recombinant α7 receptor; experiment: Whole cell current activation kinetics, α7-HEK cells; assay type: cell-based; set-up: expressed in transfected cells; host or cells: Xenopus oocytes (mRNA injected)
[12] = both sexes, rat 1M+1F, DMR4, single oral 2.16 mg/kg (10 μmol/kg)
[13] = female, rat 2F, 0619LR, single oral 149 mg/kg (690 μmol/kg)
[14] = male, rat 3M, 0619LR, single oral 201 mg/kg (930 μmol/kg)
[15] = male, rat 4M, 20030191PCR, single oral 1.08 mg/kg (5 μmol/kg)
[16] = male, rat 4M, 20030191PCR, single oral 32.4 mg/kg (150 μmol/kg)
[17] = male, rat 4M, 20030191PCR, single oral 54.1 mg/kg (250 μmol/kg)
[18] = male, rat 4M, 20030191PCR, single oral 86.5 mg/kg (400 μmol/kg)
[19] = female, sc, rabbit 3F, DMB10, single subcutaneous 2.16 mg/kg (10 μmol/kg)
[20] = female, sc, rabbit 3F, DMB10, single subcutaneous 6.49 mg/kg (30 μmol/kg)
[21] = male, ferret 4M, DMO16, single oral 10 mg/kg (46 μmol/kg)

adrenergic α2B receptor, sequence (P18089 whole entry): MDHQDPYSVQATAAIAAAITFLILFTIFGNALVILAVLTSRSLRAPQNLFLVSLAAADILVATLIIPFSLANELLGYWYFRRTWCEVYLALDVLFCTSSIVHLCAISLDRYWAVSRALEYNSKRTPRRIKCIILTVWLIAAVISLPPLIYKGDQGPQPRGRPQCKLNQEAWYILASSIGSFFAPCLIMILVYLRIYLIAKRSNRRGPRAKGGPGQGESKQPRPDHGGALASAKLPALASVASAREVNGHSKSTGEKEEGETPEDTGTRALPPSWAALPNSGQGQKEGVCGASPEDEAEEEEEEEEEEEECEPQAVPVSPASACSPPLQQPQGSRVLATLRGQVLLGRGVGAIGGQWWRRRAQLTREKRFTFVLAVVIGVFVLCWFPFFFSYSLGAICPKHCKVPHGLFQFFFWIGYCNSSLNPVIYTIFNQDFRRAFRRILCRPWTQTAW

## c1cnc2c(c1)C[C@@]1(CN3CCC1CC3)O2 [AZD0328, (R)-Spiro[1-azabicyclo[2.2.2]octane-3,2′(3′H)-furo[2,3-b]pyridine]]
Adrenergic α2B receptor
  inhibition at 10 µM: > 50%
[1]
  inhibition of specific radioligand binding: > 50%
Muscarinic M3 receptor
  inhibition at 10 µM: > 50%
Muscarinic M5 receptor
  inhibition at 10 µM: > 50%
[2]
  inhibition at 10 µM: > 50%
[3]
  functional potency at α7 versus 5-HT3A/B receptors: equipotent
5-HT3A
  functional selectivity 5-HT3A>α7: 14 fold
Rats [4]; rat, sc
  dose up to which nicotine-like stimulus properties were lacking: properties at doses up to 5.4 mg/kg
Rats [4]; rats trained to discriminate 0.3 mg/kg nicotine, sc
  nicotine-like stimulus effects: lack of nicotine-like stimulus properties
Rats [4]; rats, doses up to 30 mg/kg sc
  rate of responding: severely depressed the rate of responding
[5]; po, highest dose, read-out: total Cmax
  Cmax: 31200 nM
[5]; oral, 1.1 mg/kg, read-out: NOAEL (effect<10%) on cardiovascular function, total Cmax
  Cmax: 500 nM
Rats [6]; rat, highest dose (total Cmax 31.2 μM)
  increase in HR: 19%
Rats [6]; rat, oral gavage
  dose without CV effect: 1.1 mg/kg
Rats [6]; telemetered rats
  duration of BP and HR increase postdose: increased for up to 6 h postdose.
[7]; oral, day 7 (lowest)
  Cmax: 800 nM
[7]; po, day 4
  Cmax: 1500 nM
dogs
  single dose followed by frequent vomiting: 17.3 mg/kg and 34.6 mg/kg
Single dose PK/TK, rat; [12]
  AUC: 699 ng·h/mL to 861 ng·h/mL and 3.23 µM·h to 3.98 µM·h
  Cmax: 251 ng/mL to 344 ng/mL and 1.16 µM to 1.59 µM
  Tmax: 0.5 to 1 h
Single dose PK/TK, rat; [13]
  AUC: 76600 ng·h/mL and 354 µM·h
  Cmax: 4740 ng/mL to 11600 ng/mL and 21.9 µM
Single dose PK/TK, rat; [14]
  AUC: 49800 ng·h/mL and 230 µM·h
  Cmax: 15.9 µM and 3440 ng/mL
Single dose PK/TK, rat; [15]
  AUC: 441 ng·h/mL and 2.04 µM·h
  Cmax: 99.9 ng/mL and 462 nM
  Tmax: 1 h
Single dose PK/TK, rat; [16]
  AUC: 26600 ng·h/mL and 123 µM·h
  Cmax: 2570 ng/mL and 11.9 µM
  Tmax: 1 h
Single dose PK/TK, rat; [17]
  AUC: 37900 ng·h/mL and 175 µM·h
  Cmax: 4500 ng/mL and 20.8 µM
  Tmax: 1 h
Single dose PK/TK, rat; [18]
  AUC: 90000 ng·h/mL and 416 µM·h
  Cmax: 6750 ng/mL and 31.2 µM
  Tmax: 1 h
Single dose PK/TK, rat; rat 1M+1F, DMR4, oral 2.16 mg/kg vs iv 1.08 mg/kg
  F: 78-84%
Single dose PK/TK, rat; rat, 1 mg per kg (minimum effective dose in fimbria fornix model)
  plasma concentrations: 290 to 1400 nM
Single dose PK/TK, rat; rats, extended to mice, 0.001-0.1 mg per kg
  estimated plasma concentrations: 0.29 to 100 nM
[8]; rabbit, read-out: elimination half-life
  half-life: < 5 h
[8]; [19]
  AUC: 1750 ng·h/mL and 8.1 µM·h
  Cmax: 589 ng/mL and 2.72 µM
  Tmax: 0.5 to 1.12 h
[8]; female, sc, rabbit 3F, DMB10, single subcutaneous 2.16 mg/kg (10 μmol/kg), read-out: T½ (converted)
  half-life: 2.71 ± 1.17 h
[8]; [20]
  AUC: 7340 ng·h/mL and 33.9 µM·h
  Cmax: 1750 ± 56 ng/mL
  Tmax: 0.267 to 1.08 h
[8]; female, sc, rabbit 3F, DMB10, single subcutaneous 6.49 mg/kg (30 μmol/kg), read-out: T½ (converted)
  half-life: 4.56 ± 1.36 h
[9]; ferret, read-out: elimination half-life
  half-life: < 5 h
[9]; [21]
  AUC: 4000 ng·h/mL and 18.3 µM·h
  Cmax: 590 ng/mL and 2.73 µM
  Tmax: 0.25 to 1 h
[9]; male, ferret 4M, DMO16, single oral 10 mg/kg (46 μmol/kg), read-out: T½ (converted)
  half-life: 3.98 ± 1.66 h
Human hepatocytes
  metabolites in human hepatocyte incubations: no metabolites were detected
[10]
  Ki: 6.4 nM
[11]
  10-90% rise time, whole cell current: 1.5 ms
